Key:
Type in all cases: in vivo
[1] = system: diamondback moth (Plutella xylostella); assay: Insecticidal effect on diamondback moth (Test Example 1); conditions: for Insecticidal effect (Test Example 1), judged from mortality / Insecticidal effect, Test Example 1: diamondback moth; for Insecticidal effect (Test Example 1), judged from mortality: judged by the criterion of Test Example 1; for Insecticidal effect, Test Example 1: judged by the mortality criterion of Test Example 1
How it was run: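 Oviposition by adults on Chinese cabbage seedling; immersion; air-dry; 25° C room. Count of hatched larvae at day 6 post-immersion → mortality → effect graded by criterion. Triplicate, 10 insects/group.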

[2] = system: common cutworm (Spodoptera Litura); assay: Insecticidal effect on common cutworm (Test Example 2); conditions: 500 ppm, 25° C.; for Insecticidal effect (Test Example 2), judged from mortality / Insecticidal effect on common cutworm (Test Example 2), judged grade: cabbage leaf dip; for Insecticidal effect (Test Example 2), judged from mortality: 8 days after inoculation; for Insecticidal effect, Test Example 2: cabbage leaf immersed; for Insecticidal effect, Test Example 2 / Insecticidal effect on common cutworm (Test Example 2), judged grade: eight days after inoculation; for Insecticidal effect on common cutworm (Test Example 2), judged grade: second-instar larvae
Procedure: Insecticidal effect on common cutworm (Spodoptera Litura)
After air-drying, it was placed in a plastic Petri dish with a diameter of 9 cm and inoculated with second-instar larvae of common cutworm, after which the dish was closed and then allowed to stand in a room thermostated at 25° C. Eight days after the inoculation, the dead and alive were counted. The mortality was calculated according to the following equation and the insecticidal effect was judged according to the criterion shown in Test Example 1. The test was carried out with triplicate groups of 10 insects. [formula]

[3] = system: rice leafroller (Cnaphalocrocis medinalis); assay: Insecticidal effect on rice leafroller (Test Example 3); conditions: 500 ppm, rice lamina dip, third-instar larvae of rice leafroller, 4 days after inoculation, 25° C., humidity 70%
How it was run: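 Insecticidal effect is judged by a predefined criterion from dead/alive counts four days after infesting air-dried lamina with third-instar larvae, kept on moistened filter paper at 25° C, 70% humidity.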

[4] = second-instar larvae of common cutworm
[5] = common cutworm second-instar larvae

SMILES	Insecticidal effect (Test Example 1), judged from mortality [1]	Insecticidal effect, Test Example 1 [1]	Insecticidal effect, Test Example 2 [2, 4]	other results
Cc1cc2c(cc1NC(=O)c1cccc(Cl)c1C(=O)NC(C)C)OC(F)(F)C(F)O2 (racemic) [compound 1597]	A (100)			Insecticidal effect (Test Example 2), judged from mortality [2, 4]: A (100)
Cc1cc2c(cc1NC(=O)c1cccc(I)c1C(=O)NC(C)C)OC(F)(F)C(F)O2 (racemic) [compound 1598]	A (100)			Insecticidal effect (Test Example 2), judged from mortality [2, 4]: A (100)
Cc1cc2c(cc1NC(=O)c1cccc(I)c1C(=O)NC(C)(C)C)OC(F)(F)C(F)O2 (racemic) [compound 1599]	A (100)			Insecticidal effect (Test Example 2), judged from mortality [2, 4]: A (100)
CC(C)NC(=O)c1c(I)cccc1C(=O)Nc1cc2c(cc1Cl)OC(F)C(F)(F)O2 (racemic) [compound 1600]	A (100)			Insecticidal effect (Test Example 2), judged from mortality [2, 4]: A (100)
CC(C)NC(=O)c1c(I)cccc1C(=O)Nc1cc2c(cc1Cl)OC(F)(F)C(F)O2 (racemic) [compound 1601]	A (100)			Insecticidal effect (Test Example 2), judged from mortality [2, 4]: A (100)
CNC(=O)c1ccccc1C(=O)Nc1ccc(C(F)(F)F)cc1 [compound 2]		A (100)	C (89-80)	
CCN(CC)C(=O)c1ccccc1C(=O)Nc1ccc(C(F)(F)F)cc1 [compound 12]		A (100)	D (79-50)	
CC(C)NC(=O)c1ccccc1C(=O)Nc1ccc([N+](=O)[O-])cc1 [compound 22]		A (100)	D (79-50)	
CC(C)NC(=O)c1ccccc1C(=O)Nc1ccc(SC(F)(F)C(F)F)cc1 [compound 34]		A (100)	C (89-80)	
CC(C)NC(=O)c1ccccc1C(=O)Nc1ccc(F)c(F)c1 [compound 43]		B (99-90)	D (79-50)	
Cc1cc(OCC(F)(F)C(F)F)ccc1NC(=O)c1cccc(Cl)c1C(=O)NC(C)C [compound 147]		A (100)	C (89-80)	
CC(C)NC(=O)c1c(Cl)cccc1C(=O)Nc1ccc(OC(F)F)c(C(F)(F)F)c1 [compound 164]		A (100)	A (100)	
CC(C)NC(=O)c1cc(Cl)ccc1C(=O)Nc1ccc(F)cc1 [compound 169]		A (100)	D (79-50)	
CC(C)NC(=O)c1ccc(Cl)cc1C(=O)Nc1ccccc1 [compound 181]			A (100)	
Cc1ccccc1NC(=O)c1cc(Cl)ccc1C(=O)NC(C)C [compound 183]		A (100)	B (99-90)	
Cc1cc(OC(F)F)ccc1NC(=O)c1cc(Cl)ccc1C(=O)NC(C)C [compound 193]		A (100)	D (79-50)	
Cc1ccc(Cl)cc1NC(=O)c1c(Cl)cccc1C(=O)NC(C)C [compound 215]		A (100)	D (79-50)	
Cc1cc(OC(F)(F)C(F)OC(F)(F)F)ccc1NC(=O)c1c(Cl)cccc1C(=O)NC(C)C (stereo not drawn) [compound 244]		A (100)	C (89-80)	
Cc1cc(OC(F)F)c(Cl)cc1NC(=O)c1c(Cl)cccc1C(=O)NC(C)C [compound 245]		A (100)	D (79-50)	
Cc1cc(Oc2c(F)c(F)c(F)c(F)c2F)ccc1NC(=O)c1c(Cl)cccc1C(=O)NC(C)C [compound 248]		A (100)	C (89-80)	
CC(C)NC(=O)c1cccc(Cl)c1C(=O)Nc1ccc(OC(F)F)c(C(F)(F)F)c1 [compound 254]		A (100)	A (100)	
Cc1ccc(NC(=O)c2c(Br)cccc2C(=O)NC(C)C)c(C)c1Cl [compound 309]		A (100)	A (100)	
COc1ccc(NC(=O)c2c(Br)cccc2C(=O)NC(C)C)c(C)c1C [compound 321]		A (100)	A (100)	
CC(C)NC(=O)c1cccc(I)c1C(=O)Nc1ccc(SC(F)(F)C(F)(F)C(F)(F)F)cc1 [compound 424]		A (100)	A (100)	

SMILES	Insecticidal effect (Test Example 1), judged from mortality [1]	Insecticidal effect, Test Example 1 [1]	Insecticidal effect, Test Example 2 [2, 4]	other results
Cc1ccc(NC(=O)c2c(I)cccc2C(=O)NC(C)C)c(C)c1Cl [compound 429]		A (100)	D (79-50)	
Cc1cc(I)ccc1NC(=O)c1c(I)cccc1C(=O)NC(C)C [compound 431]		A (100)	A (100)	
COc1ccc(NC(=O)c2c(I)cccc2C(=O)NC(C)C)c(C)c1C [compound 451]				Insecticidal effect on diamondback moth (Test Example 1), judged grade ([1]; mortality judged according to the criterion shown in Test Example 1): A (100); Insecticidal effect on common cutworm (Test Example 2), judged grade [2]: A (100)
CC(C)NC(=O)c1c(C(=O)Nc2cc(C(F)(F)F)cc(C(F)(F)F)c2)cccc1[N+](=O)[O-] [compound 654]				Insecticidal effect on common cutworm (Test Example 2), judged grade [2]: D (79-50)
CSc1cccc(C(=O)NC(C)C)c1C(=O)Nc1cccc(Cl)c1C [compound 785]				Insecticidal effect on common cutworm (Test Example 2), judged grade [2]: A (100)
Cc1ccc(OCCNC(=O)c2c(C(=O)Nc3cc(Cl)ccc3C)cccc2[N+](=O)[O-])c(C)c1 [compound 880]				Insecticidal effect on common cutworm (Test Example 2), judged grade [2]: D (79-50)
Cc1cc(C#Cc2ccc(Cl)cc2Cl)ccc1NC(=O)c1cccc(I)c1C(=O)NC(C)C [compound 972]				Insecticidal effect, Test Example 2 [2, 5]: A (100)
CC(C)NC(=O)c1ccccc1C(=O)Nc1ccc(SC(F)(F)F)cc1 [compound 1123]				Insecticidal effect, Test Example 2 [2, 5]: A (100)
CC(C)(C)NC(=O)c1c(I)cccc1C(=O)Nc1ccc(C(F)(C(F)(F)F)C(F)(F)F)c2c1CCCC2 [compound 1727]	A (100)			Insecticidal effect (Test Example 3), judged from mortality [3]: A (100)
CC(C)NC(=O)c1c(I)cccc1C(=O)Nc1ccc2c(c1Cl)OC(F)(F)C(F)(F)O2 [compound 1732]				Insecticidal effect (Test Example 2), judged from mortality [2, 4]: A (100)
CC(C)NC(=O)c1c(I)cccc1C(=O)Nc1cccc2c1OC(F)(F)O2 [compound 1742]	A (100)			Insecticidal effect (Test Example 3), judged from mortality [3]: A (100)
CC(C)NC(=O)c1c(I)cccc1C(=O)Nc1c(Cl)ccc2c1OC(F)(F)O2 [compound 1743]	A (100)			Insecticidal effect (Test Example 3), judged from mortality [3]: A (100)
CC(C)(C)NC(=O)c1c(I)cccc1C(=O)Nc1c(Cl)cc(Cl)c2c1OC(F)(F)O2 [compound 1748]	A (100)			Insecticidal effect (Test Example 3), judged from mortality [3]: A (100)
C=CCON=C(C)c1ccc(NC(=O)c2cccc(I)c2C(=O)NC(C)C)cc1 [compound 1750]	A (100)			Insecticidal effect (Test Example 3), judged from mortality [3]: A (100)
CCN(CC)C(=O)c1ccccc1C(=O)Nc1ccc(Cl)cc1C [compound 1752]	A (100)			Insecticidal effect (Test Example 3), judged from mortality [3]: A (100)
CC(C)NC(=O)c1c(I)cccc1C(=O)Nc1ccc(C(C)C)c2scnc12 [compound 1763]	A (100)			Insecticidal effect (Test Example 3), judged from mortality [3]: A (100)
CC(C)NC(=O)c1c(I)cccc1C(=O)Nc1ccc(C(F)(C(F)(F)F)C(F)(F)F)cc1Oc1ccccc1 [compound 1768]	A (100)			Insecticidal effect (Test Example 3), judged from mortality [3]: A (100)
Cc1cc(C(F)(C(F)(F)F)C(F)(F)F)ccc1NC(=O)c1cccc(I)c1C(=O)NCCc1cccnc1 [compound 1770]	A (100)			Insecticidal effect (Test Example 3), judged from mortality [3]: A (100)
Cc1cc(OC(F)(F)F)ccc1NC(=O)c1cccc(I)c1C(=O)NCCc1cccnc1 [compound 1772]	A (100)			Insecticidal effect (Test Example 3), judged from mortality [3]: A (100)
Cc1cc(C(F)(C(F)(F)F)C(F)(F)F)ccc1NC(=O)c1c(I)cccc1C(=O)NC(C)c1ccccn1 (stereo not drawn) [compound 1774]	A (100)			Insecticidal effect (Test Example 3), judged from mortality [3]: A (100)
Cc1cc(OC(F)(F)F)ccc1NC(=O)c1cccc(I)c1C(=O)NC(C)c1ccccn1 (stereo not drawn) [compound 1775]	A (100)			Insecticidal effect (Test Example 3), judged from mortality [3]: A (100)
Cc1cc(OC(F)(F)F)ccc1NC(=O)c1c(I)cccc1C(=O)NC(C)c1ccccn1 (stereo not drawn) [compound 1776]	A (100)			Insecticidal effect (Test Example 3), judged from mortality [3]: A (100)
Cc1cc(C(F)(F)C(F)(F)F)ccc1NC(=O)c1c(I)cccc1C(=O)NC(C)c1ccccn1 (stereo not drawn) [compound 1778]	A (100)			Insecticidal effect (Test Example 3), judged from mortality [3]: A (100)
